# In patent US20070275999A1, “PHARMACEUTICAL COMPOSITIONS CONTAINING A HYPOGLYCEMIC AGENT(S) FOR IMPROVING OR TREATING IMPAIRED GLUCOSE TOLERANCE, BORDERLINE DIABETES, INSULIN RESISTANCE OR HYPERINSULINEMIA” (Ajinomoto Co., Inc., priority 2005, published 2007):
# Assays:
# [1] = system: Zucker Fatty (ZF) rats; assay: Circadian changes of blood glucose and insulin under restricted feeding after four weeks of treatment; format: in vivo, rat
# Excerpt: The effectiveness of mitiglinide was examined by using Zucker Fatty (ZF) rats, which have the feature of obesity and insulin resistance. It is known that though ZF rats have hyperinsulinemia and impaired glucose tolerance, their fasting blood glucose is within a normal range and, therefore, their pathology is similar to IGT in human being (Br J Pharmacol 125, 1708-14, 1998).
# Male Zucker Fatty rats of 6 weeks old were introduced and acclimatized to the restricted feeding of one hour each (9:00 to 10:00 and 15:00 to 16:00) twice per a day. After acclimatization for one week, the rats were randomly divided into two groups, and drugs were administered to them for four weeks. As the drugs, mitiglinide suspended in 0.5% methylcellulose was forcibly orally administered to one group to become a dose of 3 mg/kg, and only 0.5% methylcellulose solution that is a dose vehicle was forcibly orally administered to the other group just before each meal twice per a day. The circadian changes of their blood glucose and insulin that occurred under the restricted feeding were measured upon starting the administration and in the fourth week after its start. The drugs were not administered on the measurement day, and their blood was collected through the caudal vein before morning feeding (9:00), one hour after the feeding (10:00), two hours after the feeding (11:00), before afternoon feeding (15:00), one hour after the feeding (16:00), and two hours after the feeding (17:00). Then, their blood glucose and insulin were measured in accordance with the routine method.
# [2] = system: Zucker Fatty (ZF) rats; assay: Insulin tolerance test (ITT); format: in vivo, rat
# Procedure: On another day of the fourth week, the insulin tolerance test (ITT) was conducted in order to examine the degree of improvement of the general insulin resistance. Commercially available insulin preparation (NOVORIN R, NOVO) diluted to 0.5 U/mL with a normal saline solution was subcutaneously injected to the back of ZF rats fasted overnight to become 0.5 U/kg. Their blood was collected through the caudal vein 15, 30, 60, 120 and 180 minutes after the administration to measure their blood glucose. The blood glucose was measured in accordance with the routine method.
# In response to the above results, ITT was conducted in order to more precisely quantify the degree of improvement of the general insulin sensitivity. […] However, the blood glucose lowered by about 50% of the level before the administration in 60 minutes after the administration of insulin due to the treatment by mitiglinide.
# [3] = feeding 9:00 to 10:00 and 15:00 to 16:00, fourth week, 3 mg/kg
# [4] = male ZF rats, 3 mg/kg orally just before each meal twice per day for four weeks, measured in fourth week, no drug on measurement day
compound,measurement,setting,value
"O=C(O)[C@H](CC(=O)N1C[C@H]2CCCC[C@H]2C1)Cc1ccccc1 [Mitiglinide, (2S)-2-benzyl-4-[(3aR, 7aS) -octahydro-2H-isoindole-2-yl]-4-oxobutanoic acid]",Circadian changes of the blood glucose (FIG. 1),[1]; [3],no change
same,Insulin level in the blood plasma (FIG. 2),[1]; [3],decrease of the insulin level was clearly seen
same,Sum of the circadian changes of blood glucose,[1]; [4],1050 ± 20 mg·h/dL
same,Sum of the circadian changes of insulin,[1]; [4],224 ± 11 ng·h/mL
same,Sum of blood glucose,"[2]; ITT in fourth week, insulin 0.5 U/kg s.c., ZF rats fasted overnight, blood 15-180 min after insulin",243 ± 7 mg·h/dL
same,Blood glucose lowering relative to the level before the administration of insulin,"[2]; ITT, 60 minutes after insulin 0.5 U/kg s.c., FIG. 3",about 50%
